Experimental data published in patent US8114408B2 (priority 2007, dated 2012).

System: mice
Details: mouse, in vivo, sc

Substance: 3 (RRQRRF) [compound 3]
- immune response in immunized mice (ELISA, FIG. 2): either an immune response occurred only in some individuals or a weak immune response was shown
